A short description of the test: Restoration of CFTR chloride channel activity in human HBE cells expressing wild type CFTR assessed as increase in channel function. Type of test: functional.

Structures are written as SMILES.

Regarding `C[C@H](N)[C@H]1O[C@@H](O[C@@H]2[C@@H](O)[C@H](N)C[C@H](N)[C@H]2O[C@H]2O[C@H]([C@@H](C)O)[C@@H](O)[C@H](O)[C@H]2N)[C@H](O)[C@@H]1O`, the Activity came to 7%.
